Literature values, collected in patent US20050182136A1, “N-acetylcysteine compositions and methods for the treatment and prevention of endothelial dysfunction” (priority 2004, published 2005).

Columns and labels:
[1] = animal experiments, daily NAC dose of 150 mg/kg, over no treatment
[2] = patients with end-stage renal failure, 600 mg twice a day
[3] = oral NAC, intravenous contrast agents
[4] = relative to NAC

In the case of CC(=O)N[C@@H](CS)C(=O)O [NAC, N-acetylcysteine], the cysteine levels [1] is given as “substantially increase”, the glutathione levels [1] is given as “substantially increase” and the “various adverse cardiovascular events” value [2] is given as “significantly reduced”. The “increase of serum creatinine after the administration of the contrast agent” value [3] was “significant reduction”.
For CC(=O)N[C@@H](CSSC[C@H](NC(C)=O)C(=O)O)C(=O)O [oxidized form of NAC, di-N-acetylcysteine], the “bioactive at doses less than NAC” value [4] is given as 10-100 fold.
